This is an account of results in ChEMBL document CHEMBL1649479, “In vitro activity of doripenem against Burkholderia pseudomallei” (2009).

Common to all, as to type: functional
The subject of assay [1] is Burkholderia pseudomallei. Description: Antimicrobial activity against Burkholderia pseudomallei by Etest method.
Assay [2] has as its system Burkholderia pseudomallei. Description: Selectivity ratio of MIC for Burkholderia pseudomallei by agar dilution method to MIC for Burkholderia pseudomallei by Etest method.
Another assay relates to Pseudomonas aeruginosa. Description: Antimicrobial activity against Pseudomonas aeruginosa ATCC 27853 by agar dilution method.
In another assay the test system is Escherichia coli. Description: Antimicrobial activity against Escherichia coli ATCC 25922 by agar dilution method.
The subject of assay [3] is Burkholderia pseudomallei. The assay is described as follows: Antimicrobial activity against Burkholderia pseudomallei by agar dilution method.
[4] abbreviates: Burkholderia pseudomallei, read-out: MIC90.

Converted amounts (≈) assume the structure as drawn.

As for `C[C@@H](O)[C@H]1C(=O)N2C(C(=O)O)=C(S[C@@H]3CN[C@H](CNS(N)(=O)=O)C3)[C@H](C)[C@H]12` [DORIPENEM], the minimum inhibitory concentration (MIC) in assay [1] was determined as 0.19 µg/mL (≈ 0.452 µM); with Pseudomonas aeruginosa, 0.125 µg/mL (≈ 0.297 µM); in the assay with Escherichia coli, 0.012 µg/mL (≈ 0.0285 µM). The MIC50 in assay [1] came to 0.5 µg/mL (≈ 1.19 µM); in assay [3] (Burkholderia pseudomallei), 1 µg/mL (≈ 2.38 µM). Also, the MIC90 in assay [1] was 0.75 µg/mL (≈ 1.78 µM); in assay [3] it was “<=2 ug ml-1”; in assay [3] (setting [4]), 1.5 µg/mL (≈ 3.57 µM). Further, the Ratio in assay [2] worked out at 2. Also, the “inhibition zone (IZ)” value in assay [3] was 24 mm.

As to `C[C@@H](O)[C@H]1C(=O)N2C(C(=O)O)=C(SCCNC=N)C[C@H]12` [IMIPENEM ANHYDROUS], the MIC50 came to 0.5 µg/mL (≈ 1.67 µM) in assay [1] and 1 µg/mL (≈ 3.34 µM) in assay [3] (Burkholderia pseudomallei). Further, the MIC90 in assay [1] and in assay [3] (setting [4]) was 1 µg/mL (≈ 3.34 µM) throughout.

Turning to `C[C@@H](O)[C@H]1C(=O)N2C(C(=O)O)=C(S[C@@H]3CN[C@H](C(=O)N(C)C)C3)[C@H](C)[C@H]12` [MEROPENEM], the MIC50 in assay [1] amounted to 1 µg/mL (≈ 2.61 µM); in assay [3] (Burkholderia pseudomallei), 3 µg/mL (≈ 7.82 µM). The MIC90 in assay [1] was found to be 2 µg/mL (≈ 5.22 µM); in assay [3] (setting [4]), 4 µg/mL (≈ 10.4 µM).
